Assay results as given in US5686458A, “Quinazoline deriviates for treating peptic ulcer” (Yuhan Corporation, priority 1992, dated 1997).

How the values were obtained:
[1] = target: T1, H^+ /K^+ ATPase, gastric vesicles (Sus scrofa, UniProt P19156); experiment: Reversibility of inhibition, Dilution and Washout method (Experiment 4-3); format: biochemical, pig
T1 construct: Gastric vesicles were prepared from pig stomach; from tissue; host or cells: pig stomach, lyophilized gastric vesicles
Method: The vesicles were lyophilized and kept at -70° C.
To all […] groups, was added 100 μl of lyophilized vesicles prepared in Experiment 4-1 at the concentration of 100 μg protein 1 ml. Then, 5 mM Pipes/Tris buffer(pH 6.4 ) was added to the three groups until the volume of test tubes became 150 μl. After the preincubation for 15 minutes, H^+ /K^+ ATPase activity was measured in accordance with the same procedures as in Experiment 4-2. The concentrations of the test substances as indicated above are the final concentrations.
After the completion of preincubation, each group was diluted 50 times with 5 mM Pipes/Tris buffer(pH 6.4), and then centrifuged for 60 minutes by means of Beckman ultracentrifuge(Model L8-80). The supernatant was discarded and the pellet was suspended with 5 mM Pipes/Tris buffer pH 6.4 until the volume became the same as the preincubation volume.

[2] = test system: gastric secretion stimulated by pentagastrin; experiment: Inhibition of gastric secretion stimulated by pentagastrin (Experiment 3-2); format: in vivo, Sprague-Dawley male rats; conditions: intravenous
Method: The same procedures as in Experiment 3-1 were carried out, except that as a secretion stimulating substance, pentagastrin was infused into the left jugular vein of the rats at a dosage of 24 μg/2 ml/200 g/hr.

[3] = test system: gastric secretion stimulated by histamine; experiment: Anti-secretory effects when gastric secretion is stimulated by histamine (Experiment 3-1); format: in vivo, Sprague-Dawley male rats; conditions: intravenous
Method: In accordance with the method [see Ghosh and Shild, et al., British Journal of pharmacology 13:54-61 (1958)], anti-secretory effects of the test substances were studied in this Experiment. Sprague-Dawley male rats having a body weight of 200±20 g were divided into 3 groups, Group 1 to be administered with the compound of Example 34, Group 2 to be administered with SK&F96067[see Keeling, D. […] The rats of each Group, deprived of food for 24 hours before the experiment with free access to water, were anesthetized by intraperitoneally administering of 1.5 g/kg of 20% aqueous urethane solution and positioned on the test plate which was heated and maintained at 37° C. The anesthetized rats were cannulated at the right jugular vein for the administration of the test compounds and the left jugular vein for the administration of stimulating substances. After an abdominal incision, tubes were inserted into the esophagus and duodenum, each of which was connected with saline in a thermostat and a fraction collector. […] To the left jugular vein, histamine was administered as a gastric secretion stimulator. […] The gastric secretion inhibition (%) of the test compounds was calculated from the following equation: The gastric secretion inhibition (%) of the test compounds =(A-C)/(A-B)×100 . . . (IV) in which […]

[4] = target: T2, H^+ /K^+ ATPase (proton pump), gastric vesicles (Sus scrofa, UniProt P19156); experiment: Determination of H+/K+ ATPase activity, Lineweaver-Burk kinetics versus K+ (Experiment 4-2); format: biochemical, pig
T2 construct: Gastric vesicles were prepared from pig stomach; from tissue; host or cells: pig stomach, lyophilized gastric vesicles
Method: Gastric vesicles were prepared from pig stomach by the method described in Saccomani G., et al., J. Biol. Chem. 250, 4802-4809 (1975). The vesicles were lyophilized and kept at -70° C. The protein content was determined by the method of Lowry et al., using bovine serum albumin as standard[see Lowry, O. H., Rosebrough, N. J. and Randall, R. J., J. Biol. Chem. 193, 265-275 (1951)].
Test tubes were divided into 4 groups, each having 3 test tubes. As a control group, group 1 was added with the 10 μl of DMSO. Groups 2, 3 and 4 were administered with the compound prepared in example 34 whose final concentration are 0.17 μM, 0.33 μM and 0.67 μM, respectively. Each group was further divided into 3 small groups, in which enzymes were activated by ATP; ATP and Mg^++; and ATP, Mg^++ and K^+, respectively.
To all of the test tubes, were added 100 μl of lyophilized vesicles prepared at the concentration of 25 μg protein/ml and then 90 μl of 5 mM Pipes/Tris buffer pH 7.0. The compound prepared in Example 34 was added to each Group until the final concentration thereof became 0.17, 0.33 or 0.67 μM, respectively, They were preincubated for 15 minutes.
50 μl of ATP(3 mM) was added to each of the four Groups and the 50 μl of MgCl2 (2 mM) was added only to the 2nd and 3rd small groups of all Groups. Further, to the 3rd small groups of all Groups, were added 50 μl of KCl solution of various concentrations(from 0.1 mM to 30 mM) and then 150μl of Pipes/Tris buffer of pH 7.0. To the rest small groups, Pipes/Tris buffer of pH 7.0 was added until the volume became the same as that of the 3rd small group.
The test tube's were incubated at 37° C. for 30 minutes and then the reaction was terminated by adding 25% cold trichloroacetic acid solution. They were centrifuged by means of a microcentrifuge and the supernatant was taken up for the measurement of the released inorganic phosphate content by an automatic analyzer(CIBA CORNING, Express 550).
In accordance with the same procedures as above, except that 15 and 30 μm of omeprazole and 0.75, 1.5 and 3.0 μm of SK&F96067 were used as comparative substances, released inorganic phosphate content was measured.
The released inorganic phosphate contents of the three small groups were considered as the activity of H^+ /K^+ ATPase at each of the concentrations employed. The specific activity of H^+ /K^+ ATPase was calculated from the following equation:
Specific activity=(A-C)-(B-C) . . . (V)
A is the activity of enzyme activated by ATP, Mg^++ and , K^+ ;
B is the activity of enzyme activated by ATP and M^++ and
C is the activity of enzyme activated by ATP.
The specific activity, thus calculated, of Groups 1, 2, 3 and 4 which employed DMSO and the compound of Example 34 at 3 different concentrations were then plotted with respect to the concentration of KCl in FIG. 1 according to the method of Lineweaver-Burk, wherein .box-solid., .quadrature. and .largecircle. represent the respective concentrations of the compound of Example 34 of 0.67 μM, 0.33 μM and 0.17 μM; and .oval-solid. represents concentration of the DMSO compound. FIG. 2 depicts the Lineweaver-Burk plot of the specific activities obtained from SK&F96067, wherein .box-solid., .quadrature. and .largecircle. represent its respective concentrations of 3.0 μM, 1.5 μM, 0.75 μM; and .oval-solid. represents concentration of the DMSO compound. FIG. 3 illustrates the Lineweaver-Burk plot of the specific activities obtained from omeprazole, wherein .oval-solid. and .quadrature. represent its concentrations of 15 μM and 30 μM; and .largecircle. represents the concentration of DMSO.

T1 sequence (P19156 2-1034 limits assumed): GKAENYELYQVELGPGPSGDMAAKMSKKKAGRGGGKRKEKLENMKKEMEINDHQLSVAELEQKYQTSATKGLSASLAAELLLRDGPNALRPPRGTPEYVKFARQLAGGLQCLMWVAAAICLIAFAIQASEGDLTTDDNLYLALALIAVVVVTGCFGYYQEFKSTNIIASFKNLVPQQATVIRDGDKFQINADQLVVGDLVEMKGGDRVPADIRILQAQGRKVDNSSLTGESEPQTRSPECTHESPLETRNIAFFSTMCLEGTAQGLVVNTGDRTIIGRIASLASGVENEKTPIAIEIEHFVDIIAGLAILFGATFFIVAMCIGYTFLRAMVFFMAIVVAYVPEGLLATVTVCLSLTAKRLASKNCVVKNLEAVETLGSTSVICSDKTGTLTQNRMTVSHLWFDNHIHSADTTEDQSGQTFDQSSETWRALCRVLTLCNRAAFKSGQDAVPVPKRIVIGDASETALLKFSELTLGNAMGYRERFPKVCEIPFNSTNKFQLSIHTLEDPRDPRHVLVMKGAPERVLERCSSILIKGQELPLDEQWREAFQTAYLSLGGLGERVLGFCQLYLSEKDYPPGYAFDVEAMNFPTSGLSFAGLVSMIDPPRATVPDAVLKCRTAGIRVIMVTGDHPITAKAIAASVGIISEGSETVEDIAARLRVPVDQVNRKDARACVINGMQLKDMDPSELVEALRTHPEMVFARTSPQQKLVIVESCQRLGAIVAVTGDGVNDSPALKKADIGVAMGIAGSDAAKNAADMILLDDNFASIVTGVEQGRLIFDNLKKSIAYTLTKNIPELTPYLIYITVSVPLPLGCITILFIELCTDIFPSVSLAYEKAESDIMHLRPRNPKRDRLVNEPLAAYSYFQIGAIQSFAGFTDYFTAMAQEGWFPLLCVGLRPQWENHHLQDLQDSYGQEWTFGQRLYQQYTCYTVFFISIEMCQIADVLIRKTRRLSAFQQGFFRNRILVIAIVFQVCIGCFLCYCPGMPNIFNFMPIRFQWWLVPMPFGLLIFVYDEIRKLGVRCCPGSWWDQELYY
T1 sequence (P18434 whole entry partner): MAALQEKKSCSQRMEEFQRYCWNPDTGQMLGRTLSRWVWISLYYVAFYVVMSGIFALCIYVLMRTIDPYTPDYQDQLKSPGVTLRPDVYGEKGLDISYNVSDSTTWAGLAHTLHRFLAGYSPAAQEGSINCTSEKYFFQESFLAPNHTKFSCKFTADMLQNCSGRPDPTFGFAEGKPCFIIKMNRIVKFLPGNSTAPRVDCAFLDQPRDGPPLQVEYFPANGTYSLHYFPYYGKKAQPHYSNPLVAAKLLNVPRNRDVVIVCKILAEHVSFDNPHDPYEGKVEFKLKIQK
T2 sequence (P19156 2-1034 limits assumed): as the sequence (P19156 2-1034 limits assumed) above
T2 sequence (P18434 whole entry partner): as the sequence (P18434 whole entry partner) above

Compound: CCCC(=O)c1cnc2c(OC)cccc2c1Nc1ccccc1C [SK&F96067]
- Reversibility of the inhibition of the enzyme activity ([1]; conclusion from Table 4): reversible
- Inhibition of H+/K+ ATPase activity before Dilution and Washout ([1]; pH 6.4, Example 34 at 6 μM, omeprazole and SK&F96067 at 60 μM): 80%
- The gastric secretion inhibition ([2]; 1.0 mg/kg): 32.6%
- The gastric secretion inhibition ([2]; 3.0 mg/kg): 64.0%
- The gastric secretion inhibition ([2]; 5.0 mg/kg): 77.3%
- ED50 ([2]; Rattus norvegicus): 1.85 mg/kg
- The gastric secretion inhibition (%) ([3]; 0.5 mg/kg): 29.8%
- The gastric secretion inhibition (%) ([3]; 1.0 mg/kg): 57.1%
- The gastric secretion inhibition (%) ([3]; 3.0 mg/kg): 75.9%
- ED50 ([3]; Rattus norvegicus, read-out: ED50, gastric secretion inhibition): 0.96 mg/kg
- Competitive inhibition with K+ at the K+ binding site of proton pump ([4]; Lineweaver-Burk plot, KCl 0.1 to 30 mM): inhibited competitively with K^+
- Ki ([4]; Lineweaver-Burk, versus K+, pH 7.0): 0.7 µM
